Measured values: patent publication US11731943B2, “Therapeutic compounds, compositions and methods of use thereof” (priority 2016, dated 2023)
Where two headings read alike, the source gives them in different places.

Key:
[1] = target: isolated recombinant JAK2 kinase domain (Homo sapiens (Human), UniProt O60674); assay: JAK2 enzyme assay (Caliper LabChip, Ki); format: biochemical
Method in brief: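 Recombinant human JAK1 or JAK2 kinase domain phosphorylating a 5-carboxyfluorescein-labelled JAK3-derived peptide; 30 min at 22 °C, stopped with EDTA (50 mM final). Phosphorylated product measured as a fraction of total peptide by Caliper LabChip mobility shift.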

[2] = tested on: JAK1-dependent STAT6 phosphorylation downstream of IL-13 stimulation in BEAS-2B human bronchial epithelial cells; assay: JAK1 pathway assay in BEAS-2B cells (IL-13-pSTAT6, MSD); format: cell-based; conditions: Homo sapiens, BEAS-2B, BEAS-2B cells, IL-13 stimulation; read-out: IL-13 p-STAT6 BEAS-2B IC50
[3] = target: isolated recombinant JAK1 kinase domain (Homo sapiens (Human), UniProt P23458); assay: JAK1 enzyme assay (Caliper LabChip, Ki); format: biochemical
Method in brief: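 Recombinant human JAK1 kinase domain phosphorylating an N-terminally 5-carboxyfluorescein-labelled JAK3-derived peptide, 30 min at 22 °C, stopped with EDTA (50 mM final). Phosphorylated fraction of total peptide read by Caliper LabChip mobility shift; Ki from Morrison tight-binding fit corrected for ATP competition (Ki=Ki,app/(1+[ATP]/Km,app)).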

Sequence of isolated recombinant JAK2 kinase domain (O60674 849-1124): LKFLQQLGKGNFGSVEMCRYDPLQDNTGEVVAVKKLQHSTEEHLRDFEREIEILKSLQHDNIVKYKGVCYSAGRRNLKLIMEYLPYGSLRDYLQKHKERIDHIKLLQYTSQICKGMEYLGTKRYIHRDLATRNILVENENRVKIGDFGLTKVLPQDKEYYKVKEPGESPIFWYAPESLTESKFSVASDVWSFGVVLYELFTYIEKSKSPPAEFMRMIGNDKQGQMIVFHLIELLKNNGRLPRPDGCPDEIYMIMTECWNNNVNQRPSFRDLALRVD
Sequence of isolated recombinant JAK1 kinase domain (P23458 875-1153): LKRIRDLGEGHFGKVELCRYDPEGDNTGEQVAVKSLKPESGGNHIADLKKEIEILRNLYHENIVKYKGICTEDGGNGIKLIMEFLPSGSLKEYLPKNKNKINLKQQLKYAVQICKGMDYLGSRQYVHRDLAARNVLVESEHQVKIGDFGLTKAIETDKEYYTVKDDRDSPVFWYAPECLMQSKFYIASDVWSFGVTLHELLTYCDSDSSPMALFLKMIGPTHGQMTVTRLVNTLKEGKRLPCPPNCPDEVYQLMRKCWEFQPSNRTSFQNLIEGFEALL

| Compound | Ki [1] | IC50 [2] | Ki ([3]; read-out: JAK1 Ki) | Ki [3] |
| --- | --- | --- | --- | --- |
| COC(=O)Nc1nn(C2(CC#N)CCN(Cc3ccc(C4=CCCCC4)nc3F)CC2F)cc1C(N)=O (stereo not drawn) [Example 264, methyl N-[4-carbamoyl-1-[4-(cyanomethyl)-1-[[6-(cyclohexen-1-yl)-2-fluoro-3-pyridyl]methyl]-3-fluoro-4-piperidyl]pyrazol-3-yl]carbamate] | 1.4 nM | 88 nM | 0.79 nM |  |
| N#CCC1(n2cc(C(N)=O)c(NC(=O)C3CC3)n2)CCN(Cc2ccc(C3=CCCC3)cc2)CC1F (stereo not drawn) [Example 261, 1-[4-(cyanomethyl)-1-[[4-(cyclopenten-1-yl)phenyl]methyl]-3-fluoro-4-piperidyl]-3-(cyclopropanecarbonylamino) pyrazole-4-carboxamide] | 0.82 nM | 21 nM | 0.56 nM |  |
| COC(=O)Nc1nn(C2(CC#N)CCN(Cc3ccc(C4=CCCC4)cc3)CC2F)cc1C(N)=O (stereo not drawn) [Example 268, methyl N-[4-carbamoyl-1-[4-(cyanomethyl)-1-[[4-(cyclopenten-1-yl)phenyl]methyl]-3-fluoro-4-piperidyl]pyrazol-3-yl]carbamate] | 1.9 nM | 43 nM | 0.9 nM |  |
| N#CC[C@]1(n2cc(C(N)=O)c(NC(=O)C3CC3)n2)CCN(Cc2ccc(-c3ccccc3)cc2)C[C@@H]1F (single isomer, unassigned) [Example 12] | 6.8 nM | 103 nM | 1.3 nM |  |
| N#CC[C@]1(n2cc(C(N)=O)c(NC(=O)C3CC3)n2)CC[C@@H](N2CC(OCc3ccccc3)(C(F)(F)F)C2)CC1 [Example 133] | 15.6 nM | 162 nM | 2.5 nM |  |
| CC(=O)Nc1cc(CN2CCC(CC#N)(n3cc(C(N)=O)c(NC(=O)C4CC4)n3)CC2)ccc1Cl [Example 81] | 38.4 nM | > 1000 nM | 4.4 nM |  |
| COC(=O)Nc1nn(C2(CC#N)CCN(Cc3ccc(-c4csc(C)n4)cc3)CC2F)cc1C(N)=O (stereo not drawn) [Example 249, methyl N-[4-carbamoyl-1-[4-(cyanomethyl)-3-fluoro-1-[[4-(2-methylthiazol-4-yl)phenyl]methyl]-4-piperidyl]pyrazol-3-yl]carbamate] | 0.56 nM | 26 nM | 0.52 nM |  |
| COC1(C(F)(F)F)CN([C@H]2CC[C@@](CC#N)(n3cc(C(N)=O)c(NC(=O)C4CC4)n3)CC2)C1 [Example 131] | 18.7 nM | 334 nM | 2.8 nM |  |
| CCn1ccc(-c2ccc(CN3CCC(CC#N)(n4cc(C(N)=O)c(NC(=O)OC)n4)C(F)C3)c(F)c2)n1 (stereo not drawn) [Example 241, methyl N-[4-carbamoyl-1-[4-(cyanomethyl)-1-[[4-(1-ethylpyrazol-3-yl)-2-fluoro-phenyl]methyl]-3-fluoro-4-piperidyl]pyrazol-3-yl]carbamate] | 0.51 nM | 29 nM | 0.54 nM |  |
| COC(=O)Nc1nn(C2(CC#N)CCN(Cc3ccc(-c4ccc(C)o4)c(O)c3)CC2F)cc1C(N)=O (stereo not drawn) [Example 247, methyl N-[4-carbamoyl-1-[4-(cyanomethyl)-3-fluoro-1-[[3-hydroxy-4-(5-methyl-2-furyl)phenyl]methyl]-4-piperidyl]pyrazol-3-yl]carbamate] | 0.43 nM | 26 nM | 0.35 nM |  |
| COC(=O)Nc1nn(C2(CC#N)CCN(Cc3ccc(C4=CCCCC4)cc3)CC2F)cc1C(N)=O (stereo not drawn) [Example 257, methyl N-[4-carbamoyl-1-[4-(cyanomethyl)-1-[[4-(cyclohexen-1-yl)phenyl]methyl]-3-fluoro-4-piperidyl]pyrazol-3-yl]carbamate] | 1.3 nM | 52 nM | 0.73 nM |  |
| N#CCC1(n2cc(C(N)=O)c(NC(=O)C3CC3)n2)CCN(Cc2ccc(Br)cc2)CC1 [Example 52] | 20.9 nM | 102 nM | 2.3 nM |  |
| N#CCC1(n2cc(C(N)=O)c(NC(=O)C3CC3)n2)CCN(Cc2ccccc2C#N)CC1 [Example 64] | 83.5 nM | > 1000 nM | 7.3 nM |  |
| CCc1ccc(-c2ccc(CN3CCC(CC#N)(n4cc(C(N)=O)c(NC(=O)C5CC5)n4)CC3)cc2)cc1 [Example 155, 1-[4-(cyanomethyl)-1-[[4-(4-ethylphenyl)phenyl]methyl]-4-piperidyl]-3-(cyclopropanecarbonylamino) pyrazole-4-carboxamide] | 7.3 nM | 60 nM | 0.6 nM |  |
| N#CCC1(n2cc(C(N)=O)c(NC(=O)C3CC3)n2)CCN(Cc2ccc(-c3ccccc3)cc2)CC1 [Example 6, 1-(1-([1,1′-Biphenyl]-4-ylmethyl)-4-(cyanomethyl)piperidin-4-yl)-3-(cyclopropanecarboxamido)-1H-pyrazole-4-carboxamide] | 3.6 nM | 31 nM | 0.8 nM |  |
| COC(=O)Nc1nn(C2(CC#N)CCN(Cc3ccc(-n4nccn4)cc3)CC2F)cc1C(N)=O (stereo not drawn) [Example 200, methyl N-[4-carbamoyl-1-[4-(cyanomethyl)-3-fluoro-1-[[4-(triazol-2-yl)phenyl]methyl]-4-piperidyl]pyrazol-3-yl]carbamate] | 0.96 nM | 39 nM | 0.51 nM |  |
| N#CCC1(n2cc(C(N)=O)c(NC(=O)C3CC3)n2)CCC(Nc2ccccc2)CC1 (stereo not drawn) [Example 282, 1-[4-anilino-1-(cyanomethyl)cyclohexyl]-3-(cyclopropanecarbonylamino) pyrazole-4-carboxamide] | 9.6 nM | 48 nM | 0.62 nM |  |
| N#CCC1(n2cc(C(N)=O)c(NC(=O)C3CC3)n2)CCN(Cc2ccc(C3=CCCCC3)cc2)CC1F (stereo not drawn) [Example 229, 1-[4-(cyanomethyl)-1-[[4-(cyclohexen-1-yl)phenyl]methyl]-3-fluoro-4-piperidyl]-3-(cyclopropanecarbonylamino) pyrazole-4-carboxamide] | 0.77 nM | 25 nM | 0.48 nM |  |
| COC(=O)Nc1nn(C2(CC#N)CCN(Cc3ccc(-c4ccccc4)nc3F)CC2)cc1C(N)=O [Example 198, methyl N-[4-carbamoyl-1-[4-(cyanomethyl)-1-[(2-fluoro-6-phenyl-3-pyridyl)methyl]-4-piperidyl]pyrazol-3-yl]carbamate] | 3.8 nM | 74 nM | 1.2 nM |  |
| CC1(Oc2ccc(OC(F)F)cc2)CN(C2CCC(CC#N)(n3cc(C(N)=O)c(NC(=O)C4CC4)n3)CC2)C1 (stereo not drawn) [Example 291, 1-[1-(cyanomethyl)-4-[3-[4-(difluoromethoxy)phenoxy]-3-methyl-azetidin-1-yl]cyclohexyl]-3-(cyclopropanecarbonylamino) pyrazole-4-carboxamide] | 2.1 nM | 54 nM | 0.86 nM |  |
| N#CC[C@]1(n2cc(C(N)=O)c(NC(=O)C3CC3)n2)CC[C@H](NCC(F)(F)F)CC1 (single isomer, unassigned) [Example 2] | 6.1 nM | 373 nM |  | 1.2 nM |
